Assay results taken from publication PMC11523249, “Expanding the antiprotozoal activity and the mechanism of action of n-butyl and iso-butyl ester of quinoxaline-1,4-di-N-oxide derivatives against Giardia lamblia, Trichomonas vaginalis, and Entamoeba histolytica. An in vitro and in silico approach” (Journal of Enzyme Inhibition and Medicinal Chemistry, 2024).
Like-named read-outs stand apart in the source and are kept apart here.

Key:
[1] = test system: E. histolytica strain HM1-IMSS; experiment: In vitro susceptibility assay, E. histolytica trophozoites; assay type: cell-based, Entamoeba histolytica
Procedure: (§1) G. lamblia WB strain, T. vaginalis GT3 strain, and E. histolytica strain HM1-IMSS were used in all experiments, all parasitic strains were obtained from the Unidad de Investigación Médica en Enfermedades Infecciosas y Parasitarias, Hospital de Pediatría, Instituto Mexicano del Seguro Social. In vitro susceptibility assays to determine IC50 values were performed using a method previously described. For this, 4 × 10^4 G. lamblia; 6 × 10^3 E. histolytica, or 4 × 10^4 T. vaginalis trophozoites were incubated for 48 h at 37 °C with different concentrations of quinoxaline derivatives T-137 to T-170 (0.5 ng/mL to 10 μg/mL) using dimethyl sulfoxide (DMSO) (0.05%) as solvent. Metronidazole and albendazole were used as positive controls, and parasites in the medium without drugs containing DMSO (0.05%) were included as negative controls. At the end of the incubation period, trophozoites were washed and subcultured for another 48 h in a fresh medium without drugs. Then, trophozoites were counted with a haemocytometer and the IC50 was calculated by Probit analysis. Experiments were carried out in triplicate and repeated at least twice.

T. vaginalis GT3 strain = experiment: In vitro susceptibility assay, T. vaginalis trophozoites; assay type: cell-based, Trichomonas vaginalis
Procedure: as §1

G. lamblia WB strain = experiment: In vitro susceptibility assay, G. lamblia trophozoites; assay type: cell-based, Giardia lamblia
Procedure: as §1

[2] = test system: murine macrophage cell line J774.2; experiment: Cytotoxic evaluation, MTT colorimetric assay; assay type: cell-based; conditions: murine macrophages J774.2, read-out: Cytotoxicity (Macrophages J774.2) (CC50)
Procedure: The murine macrophage cell line J774.2 was maintained in culture flasks with RPMI 1640 medium supplemented with 10% FBS, and 100 U/mL antibiotic-antifungal mixture (Gibco). Cells were incubated at 37 °C with 5% CO2 and humidity. Murine macrophage cell line J774.2 is maintained at Laboratorio de Estudios Epidemiológicos, Clínicos, Diseños Experimentales e Investigación, Facultad de Ciencias Químicas, Universidad Autónoma “Benito Juárez” de Oaxaca. Macrophages were washed and viability was assessed by the MTT colorimetric assay. In a 96-well microplate, 1 × 10^5 macrophages were added per well and a dose-response assay was performed. Compounds were evaluated using serial dilutions to determine half-maximal cytotoxic concentration (CC50) values in triplicate considering 0.2% DMSO as negative control.

[3] = molecular target: T1, recombinant E. histolytica thioredoxin reductase (EhTRXR) (Entamoeba histolytica, UniProt C4LW95); experiment: Inhibition of EhTrxR DTNB reductase activity; assay type: biochemical; conditions: for inhibition at 100 µM: pH 7, read-out: EhTrxR inhibitory effect (disulphide reductase activity)
T1 construct: His-tag (pET28a) (N); made in house; host or cells: E. coli BL21 (DE3)
T1 sequence (C4LW95 1-314): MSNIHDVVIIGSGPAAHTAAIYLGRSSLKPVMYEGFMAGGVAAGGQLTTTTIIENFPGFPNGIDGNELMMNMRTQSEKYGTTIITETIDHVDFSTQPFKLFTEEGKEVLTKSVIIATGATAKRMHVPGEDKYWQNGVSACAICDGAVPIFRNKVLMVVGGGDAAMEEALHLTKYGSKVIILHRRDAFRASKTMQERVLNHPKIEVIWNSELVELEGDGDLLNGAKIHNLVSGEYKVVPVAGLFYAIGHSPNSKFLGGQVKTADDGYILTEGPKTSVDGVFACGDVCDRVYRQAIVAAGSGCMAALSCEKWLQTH
Procedure: Recombinant E. histolytica thioredoxin reductase (EhTRXR) was expressed in E. coli BL21 (DE3) as His-tag (N-terminal) recombinant proteins using pET28a vector, and it was purified using IMAC as previously described. 5,5′-Dithiobis(2-nitrobenzoic acid) (DTNB) reductase activity was measured by monitoring the production of thionitrobenzoate at 405 nm in a reaction mixture comprising 50 mM potassium phosphate, pH 7.0, 2 mM EDTA, 300 µM NADPH, 5 mM DTNB, and 0.1 µM EhTRXR. Activity was calculated using the molar extinction coefficient at 405 nm of 13.6 mM^−1cm^− 1 and considering that 1 mol of NADPH yields 2 mol of thionitrobenzoate. The enzyme assays were performed at 30 °C, in a final volume of 50 μL, and using a Multiskan Ascent one-channel vertical light path filter photometer (Thermo Electron Co.). All results represent the arithmetic mean of at three independent experiments.

[4] = Entamoeba histolytica, 48 h, read-out: E. histolytica (IC50 nM), trophozoites, 48 h at 37 °C, subcultured 48 h, Probit analysis
[5] = Trichomonas vaginalis, GT3, 48 h, read-out: T. vaginalis (IC50 nM), trophozoites, 48 h at 37 °C, subcultured 48 h, Probit analysis
[6] = Giardia duodenalis, 48 h, read-out: G. lamblia (IC50 nM), trophozoites, 48 h at 37 °C, subcultured 48 h, Probit analysis
[7] = read-out: E. histolytica (IC50 nM), trophozoites, 48 h at 37 °C, subcultured 48 h, Probit analysis
[8] = read-out: T. vaginalis (IC50 nM), trophozoites, 48 h at 37 °C, subcultured 48 h, Probit analysis

Row | SMILES | IC50 [1, 4] [nM] | IC50 (T. vaginalis GT3 strain; [5]) [nM] | IC50 (G. lamblia WB strain; [6]) [nM] | CC50 [2] [nM] | IC50 [1, 7] [nM] | IC50 (T. vaginalis GT3 strain; [8]) [nM] | inhibition at 100 µM [3] [%] | Selectivity index, E. histolytica versus macrophages ([1]; CC50 J774.2 / IC50 E. histolytica) [fold] | IC50 ([3]; DTNB reductase activity, 30 °C, pH 7.0) [nM] | IC50 (G. lamblia WB strain; read-out: G. lamblia (IC50 nM), trophozoites, 48 h at 37 °C, subcultured 48 h, Probit analysis) [nM]
1 | CCCSc1ccc2nc(NC(=O)OC)[nH]c2c1 [Albendazole, reference compound] | 44000 ± 2470 | 1830 ± 86.7 | 49 ± 5.65 | – | – | – | – | – | – | –
2 | CCCCOC(=O)c1ccc2c(c1)[n+]([O-])c(C(C)=O)c(C)[n+]2[O-] [Compound T-137] | 83.3 ± 1.57 | 258 ± 6.29 | 77 ± 9.43 | 58400 ± 1120 | – | – | – | – | – | –
3 | CCCCOC(=O)c1ccc2c(c1)[n+]([O-])c(C(=O)OC)c(C)[n+]2[O-] [Compound T-138] | ~40 | 88 | 48.5 ± 1.5 | 46200 ± 3260 | 40.4 ± 4.49 | 88.3 ± 12 | – | – | – | –
4 | CCCCOC(=O)c1ccc2c(c1)[n+]([O-])c(C(=O)OCC)c(C)[n+]2[O-] [Compound T-139] | ~30 | ~100 | 47.4 ± 5.75 | > 200000 | 34.5 ± 7.18 | 103 ± 2.87 | – | – | – | –
5 | CCCCOC(=O)c1ccc2c(c1)[n+]([O-])c(C(=O)OC(C)(C)C)c(C)[n+]2[O-] [Compound T-140] | ~30 | ~100 | 49.2 ± 2.66 | > 200000 | 29.2 ± 2.66 | 101 ± 3.99 | 50 to 75 | – | – | –
6 | CCCCOC(=O)c1ccc2c(c1)[n+]([O-])c(C(=O)OCc1ccccc1)c(C)[n+]2[O-] [Compound T-141] | ~40 | 166 ± 6.1 | 70.7 ± 1.22 | > 200000 | 40.2 ± 2.44 | – | – | – | – | –
7 | CCCCOC(=O)c1ccc2c(c1)[n+]([O-])c(C(=O)c1ccccc1)c(C)[n+]2[O-] [Compound T-142] | 9.2 ± 1.32 | < 90 | 36.8 ± 0.66 | 17600 ± 2140 | – | 81.5 ± 3.95 | 50 to 75 | 1918 | – | –
8 | CCCCOC(=O)c1ccc2c(c1)[n+]([O-])c(C(=O)Nc1ccc(C)cc1C)c(C)[n+]2[O-] [Compound T-144] | 47.3 ± 4.73 | 118 ± 4.73 | 46.1 ± 1.18 | – | – | – | – | – | – | –
9 | CCCCOC(=O)c1ccc2c(c1)[n+]([O-])c(C(C)=O)c(C(F)(F)F)[n+]2[O-] [Compound T-145] | 57.8 ± 6.72 | 108 ± 16.1 | 40.3 ± 6.72 | > 200000 | – | – | > 75 | – | 16000 | –
10 | CCCCOC(=O)c1ccc2c(c1)[n+]([O-])c(C(=O)c1ccccc1)c(C(F)(F)F)[n+]2[O-] [Compound T-148] | 16.1 ± 3.46 | < 90 | 39.2 ± 3.46 | 48400 ± 1650 | – | 82.9 ± 8.06 | 50 to 75 | – | – | –
11 | CCCCOC(=O)c1ccc2c(c1)[n+]([O-])c(C(=O)c1cccs1)c(C(F)(F)F)[n+]2[O-] [Compound T-149] | 18.2 ± 2.27 | 97.7 ± 9.09 | < 30 | – | – | – | 50 to 75 | – | – | 27.3 ± 2.27
12 | CCCCOC(=O)c1ccc2c(c1)[n+]([O-])c(C(=O)c1ccc3ccccc3c1)c(C(F)(F)F)[n+]2[O-] [Compound T-150] | 36.1 ± 1.14 | 124 ± 2.27 | 51.6 ± 2.27 | > 200000 | – | – | – | – | – | –
13 | CCCCOC(=O)c1ccc2c(c1)[n+]([O-])c(C(=O)Nc1ccccc1)c(-c1ccccc1)[n+]2[O-] [Compound T-151] | 65.6 ± 2.19 | 153 ± 3.28 | 114 ± 4.38 | 44100 ± 3450 | – | – | – | – | – | –
14 | CC(=O)c1c(C)[n+]([O-])c2ccc(C(=O)OCC(C)C)cc2[n+]1[O-] [Compound T-155] | 58.2 ± 1.57 | 192 ± 6.29 | – | 87220 ± 213 | – | – | 50 to 75 | – | – | –
15 | COC(=O)c1c(C)[n+]([O-])c2ccc(C(=O)OCC(C)C)cc2[n+]1[O-] [Compound T-156] | 59.9 ± 5.99 | 248 ± 5.99 | 95.8 ± 4.49 | – | – | – | – | – | – | –
16 | Cc1c(C(=O)c2ccccc2)[n+]([O-])c2cc(C(=O)OCC(C)C)ccc2[n+]1[O-] [Compound T-157] | 55.2 ± 5.26 | 153 ± 6.58 | 43.4 ± 1.32 | 34200 ± 3040 | – | – | 50 to 75 | – | – | –
17 | Cc1c(C(=O)Nc2ccccc2)[n+]([O-])c2cc(C(=O)OCC(C)C)ccc2[n+]1[O-] [Compound T-158] | 38 ± 2.53 | 164 ± 10.1 | 62 ± 1.27 | > 200000 | – | – | – | – | – | –
18 | CC(C)COC(=O)c1ccc2c(c1)[n+]([O-])c(C(=O)c1ccccc1)c(C(F)(F)F)[n+]2[O-] [Compound T-163] | 57.6 ± 2.3 | 100 ± 5.76 | 34.5 ± 2.3 | – | – | – | 50 to 75 | – | – | –
19 | CC(C)COC(=O)c1ccc2c(c1)[n+]([O-])c(C(=O)c1cccs1)c(C(F)(F)F)[n+]2[O-] [Compound T-164] | 27.3 ± 5.26 | 118 ± 10.5 | 107 ± 9.21 | 43800 ± 1890 | – | – | – | – | – | –
20 | CC(C)COC(=O)c1ccc2c(c1)[n+]([O-])c(C(=O)c1ccco1)c(C(F)(F)F)[n+]2[O-] [Compound T-165] | 30.6 ± 2.36 | 125 ± 2.36 | 101 ± 2.36 | 81800 ± 3590 | – | – | – | – | – | –
21 | CC(C)COC(=O)c1ccc2c(c1)[n+]([O-])c(C(=O)c1ccc3ccccc3c1)c(C(F)(F)F)[n+]2[O-] [Compound T-166] | 50.6 ± 5.17 | 82.6 ± 4.13 | 41.3 ± 2.07 | – | – | – | – | – | – | –
22 | Cc1ncc([N+](=O)[O-])n1CCO [Metronidazole, reference compound] | 251 ± 5.48 | 210 ± 8.76 | 1150 ± 40.9 | – | – | – | – | – | – | –
